# Assay results published in patent publication US7608630B2, “Marasmius androsaceus L.es Fr extract, piperidone derivative, and their use for the preparation of hypertensives” (Hainan Yangpu New Special Pharmaceutical Co., Ltd., priority 2004, dated 2009).
# Values joined by “and” are separate entries in the source; they are usually repeats but may differ in a detail not shown here. Equal entries are not always repeated.
# Test system: blood pressure of cats
# Assay: Reduction of blood pressure of cat
# Assay type: in vivo
# Details: cats
# Protocol: A spontaneously hypertensive rat (SHR) was anesthetized with 40 mg/ml pentobarbital, and fixed by its back on an experimental stand. The skin at its neck was cut open after removing hair, and thereafter the right common carotid artery was separated with its proximal end being clamped by a artery clamp and its axifugal end being ligated by a thread. A V-shape cut was made with scissors at the axifugal end, into which an arterial cannula filled with heparin physiological saline was inserted. The arterial cannula was connected with a blood pressure transducer, and then the blood pressure transducer was connected to a computer-controlled three-way physiological-pharmacological recorder. The right femoral vein of the rat was separated and intubated for the injection of a drug. When the blood pressure became stable (i.e., the blood pressure contraction curve became straight), the rat was administered by intravenous route.
# Five cats of 2.5-3.2 kg were administered orally and intravenously respectively according to the method in Example 8, and then their systolic pressure and diastolic pressure were determined using normal cats non-administered as a control group.
# [1] = 5 mg/kg iv, 180 min after administration
# [2] = 5 mg/kg iv, 180 min after administration, 5 mg/kg
# [3] = 5 mg/kg iv, before administration
# [4] = 5 mg/kg iv, before administration, 5 mg/kg
# [5] = 10 mg/kg o.s, 10 min after administration
# [6] = 10 mg/kg o.s, 10 min after administration, 10 mg/kg
# [7] = 10 mg/kg o.s, 20 min after administration
# [8] = 10 mg/kg o.s, 20 min after administration, 10 mg/kg
# [9] = 10 mg/kg o.s, 30 min after administration
# [10] = 10 mg/kg o.s, 30 min after administration, 10 mg/kg
# [11] = 10 mg/kg o.s, 40 min after administration
# [12] = 10 mg/kg o.s, 40 min after administration, 10 mg/kg
# [13] = 10 mg/kg o.s, 50 min after administration
# [14] = 10 mg/kg o.s, 50 min after administration, 10 mg/kg
# [15] = 10 mg/kg o.s, 60 min after administration
# [16] = 10 mg/kg o.s, 60 min after administration, 10 mg/kg
# [17] = 10 mg/kg o.s, 90 min after administration
# [18] = 10 mg/kg o.s, 90 min after administration, 10 mg/kg
# [19] = 10 mg/kg o.s, 120 min after administration
# [20] = 10 mg/kg o.s, 120 min after administration, 10 mg/kg
# [21] = 10 mg/kg o.s, 150 min after administration
# [22] = 10 mg/kg o.s, 150 min after administration, 10 mg/kg
# [23] = 10 mg/kg o.s, 180 min after administration
# [24] = 10 mg/kg o.s, 180 min after administration, 10 mg/kg
# [25] = 10 mg/kg o.s, before administration
# [26] = 10 mg/kg o.s, before administration, 10 mg/kg
compound,measurement,setting,value
"CC1(C)CNCC(C)(C)C1=O [Compound of formula II, 3,3,5,5-tetramethyl-4-piperidone]","Systolic pressure, Animal 1-4 individually","5 mg/kg iv, 150 min after administration, 5 mg/kg",186 mmHg and 170 mmHg and 202 mmHg and 150 mmHg
same,Average Diastolic pressure,[1],133.75 mmHg
same,Average Systolic pressure,[1],185 mmHg
same,"Diastolic pressure, Animal 1-4 individually",[2],123 mmHg and 148 mmHg and 156 mmHg and 108 mmHg
same,"Systolic pressure, Animal 1-4 individually",[2],187 mmHg and 176 mmHg and 212 mmHg and 165 mmHg
same,Average Diastolic pressure,[3],146.25 mmHg
same,Average Systolic pressure,[3],199.5 mmHg
same,"Diastolic pressure, Animal 1-4 individually",[4],169 mmHg and 138 mmHg and 163 mmHg and 115 mmHg
same,"Systolic pressure, Animal 1-4 individually",[4],226 mmHg and 183 mmHg and 211 mmHg and 178 mmHg
same,Average Diastolic pressure,[5],119 mmHg
same,Average Systolic pressure,[5],166.25 mmHg
same,"Diastolic pressure, individual animals",[6],143 mmHg and 145 mmHg and 112 mmHg and 76 mmHg
same,"Systolic pressure, Animal 1-4 individually",[6],190 mmHg and 180 mmHg and 159 mmHg and 136 mmHg
same,Average Diastolic pressure,[7],107.25 mmHg
same,Average Systolic pressure,[7],153 mmHg
same,"Diastolic pressure, individual animals",[8],130 mmHg and 136 mmHg and 91 mmHg and 72 mmHg
same,"Systolic pressure, Animal 1-4 individually",[8],170 mmHg and 181 mmHg and 138 mmHg and 123 mmHg
same,Average Diastolic pressure,[9],96 mmHg
same,Average Systolic pressure,[9],140.5 mmHg
same,"Diastolic pressure, individual animals",[10],110 mmHg and 108 mmHg and 91 mmHg and 75 mmHg
same,"Systolic pressure, Animal 1-4 individually",[10],154 mmHg and 140 mmHg and 138 mmHg and 130 mmHg
same,Average Diastolic pressure,[11],95.25 mmHg
same,Average Systolic pressure,[11],140.5 mmHg
same,"Diastolic pressure, individual animals",[12],107 mmHg and 100 mmHg and 95 mmHg and 79 mmHg
same,"Systolic pressure, Animal 1-4 individually",[12],146 mmHg and 133 mmHg and 143 mmHg and 140 mmHg
same,Average Diastolic pressure,[13],101 mmHg
same,Average Systolic pressure,[13],144.25 mmHg
same,"Diastolic pressure, individual animals",[14],110 mmHg and 116 mmHg and 95 mmHg and 83 mmHg
same,"Systolic pressure, Animal 1-4 individually",[14],149 mmHg and 140 mmHg and 144 mmHg (2×)
same,Average Diastolic pressure,[15],103 mmHg
same,Average Systolic pressure,[15],144 mmHg
same,"Diastolic pressure, individual animals",[16],110 mmHg and 117 mmHg and 102 mmHg and 83 mmHg
same,"Systolic pressure, Animal 1-4 individually",[16],149 mmHg and 153 mmHg and 130 mmHg and 144 mmHg
same,Average Diastolic pressure,[17],103.75 mmHg
same,Average Systolic pressure,[17],157 mmHg
same,"Diastolic pressure, individual animals",[18],102 mmHg and 120 mmHg and 97 mmHg and 96 mmHg
same,"Systolic pressure, Animal 1-4 individually",[18],154 mmHg (2×) and 180 mmHg and 140 mmHg
same,Average Diastolic pressure,[19],108.25 mmHg
same,Average Systolic pressure,[19],165 mmHg
same,"Diastolic pressure, individual animals",[20],93 mmHg and 154 mmHg and 96 mmHg and 90 mmHg
same,"Systolic pressure, Animal 1-4 individually",[20],146 mmHg and 195 mmHg and 163 mmHg and 156 mmHg
same,Average Diastolic pressure,[21],111.75 mmHg
same,Average Systolic pressure,[21],169.25 mmHg
same,"Diastolic pressure, individual animals",[22],93 mmHg and 161 mmHg and 109 mmHg and 84 mmHg
same,"Systolic pressure, Animal 1-4 individually",[22],146 mmHg and 206 mmHg and 168 mmHg and 157 mmHg
same,Average Diastolic pressure,[23],117.5 mmHg
same,Average Systolic pressure,[23],176.25 mmHg
same,"Diastolic pressure, individual animals",[24],107 mmHg and 164 mmHg and 112 mmHg and 87 mmHg
same,"Systolic pressure, Animal 1-4 individually",[24],158 mmHg and 213 mmHg and 170 mmHg and 164 mmHg
same,Average Systolic pressure,"10 mg/kg o.s, 210 min after administration",176.5 mmHg
same,"Systolic pressure, Animal 1-4 individually","10 mg/kg o.s, 210 min after administration, 10 mg/kg",159 mmHg and 213 mmHg and 170 mmHg and 164 mmHg
same,Average Systolic pressure,"10 mg/kg o.s, 240 min after administration",182.75 mmHg
same,"Systolic pressure, Animal 1-4 individually","10 mg/kg o.s, 240 min after administration, 10 mg/kg",178 mmHg and 213 mmHg and 176 mmHg and 164 mmHg
same,Average Diastolic pressure,[25],147.5 mmHg
same,Average Systolic pressure,[25],202.5 mmHg
same,"Diastolic pressure, individual animals",[26],143 mmHg and 165 mmHg and 145 mmHg and 137 mmHg
same,"Systolic pressure, Animal 1-4 individually",[26],191 mmHg and 215 mmHg and 196 mmHg and 208 mmHg
